Patent US12257287B2, “Glucagon-derived peptide and use thereof” (Tianjin Institute of Pharmaceutical Research Co., Ltd., priority 2018, dated 2025)
Converted amounts (≈) assume the structure as drawn. Marks after values point to notes of the source that are not given here. Numbered stars: 1 amine (or outer) side, 2 acyl side, 3 side chain; on linkers, the order of the positions; unused ones are H or OH. Square brackets hold non-standard residues; d marks the D form. Side chains are listed from the residue outwards. Peptide text beside a SMILES is read from it. * marks the point of attachment. C20 diacid = O=C(O)CCCCCCCCCCCCCCCCCCC(=O)*; C18 diacid = O=C(O)CCCCCCCCCCCCCCCCC(=O)*; γGlu = O=C(O)[C@H](CCC(=O)[*:2])N[*:1]; AEEA = NCCOCCOCC(=O)O; Aib = CC(C)(N)C(=O)O

Assays:
physchem = format: physicochemical
[1] = Effect on body weight of DIO mice after 14 days' administration; format: in vivo, C57BL/6J mice; details: positive values indicate a decrease
Excerpt: C57BL/6J mice (n=35), model group (n=30) were fed with H10060 high-fat diet to induce obesity (DIO), blank control group (n=5) were fed with standard diet, both for 34 weeks. One day before the first administration, the model group was randomly divided into groups according to their body weight (average body weight range 45.0-52.0 g), with 5 mice in each group, which respectively were model control group, positive control group (semaglutide), and test sample group (1 #-4 # are compound 1, compound 4, compound 6 and compound 22, respectively). The blank control group and model control group were given saline subcutaneously every day, while the positive control group and test sample group were administrated by subcutaneous injection every day for 14 days. The body weight of the animals was weighed and recorded every day, and the change rate of body weight (%) was calculated by comparing the body weight at the last administration day with the initial body weight. (initial body weight−last body weight)/initial body weight=body weight change rate (%). Calculation formula: […]
Calculated positive values indicate a decrease and negative values indicate an increase.
(§1) Methods are the same as that in Example 3, the test results of effects on body weight are shown in Table 5, and the effects on blood glucose are shown in Table 6. In the table, 5 #-9 # are compound 27, compound 35, compound 54, compound 57, and compound 66, respectively.

GC receptor = target: T1, GC receptor (Homo sapiens, UniProt P47871); experiment: GC receptor mediated cAMP production in vitro (HEK293 cells transfected with GC receptor); format: cell-based; details: 20 min at 37° C., read-out: GCGR (nM EC50)
T1 construct: expressed in transfected cells; host or cells: HEK293 cells
Excerpt: (§2) The medium was removed, the cells were lysed, and cAMP values were detected referring to the detection method described for the assay kit.

human GLP-1 receptor = target: T2, human GLP-1 receptor (Homo sapiens, UniProt P43220); experiment: GLP-1 receptor mediated cAMP production in vitro; format: cell-based; details: cells transfected with human GLP-1 receptor, 20 min at 37° C., read-out: GLP-1R (nM EC50)
T2 construct: expressed in transfected cells; host or cells: Chinese guinea pig lung cells [sic]
Excerpt: as §2

[2] = Glucose tolerance test in glucose-loaded DIO mice; format: in vivo; design: AUC reduction rate (%), Table 6: concentration or dose not given beside the values
Protocol: DIO mice fasted for 16 h, and 1 h after administration by subcutaneous injection, glucose solution (1 g/kg) was given intraperitoneally for glucose tolerance test. Blood glucose values were measured at 0.5, 1 and 1.5 h after glucose administration. The area under the blood glucose concentration curve (AUC) was calculated and compared with that of the model control group, and the blood glucose inhibition rate (%) was calculated.
as §1

[3] = Short-term administration: food intake and body weight in DIO mice; format: in vivo; details: 30 nmol/kg once every 24 h, twice, − decrease; for Rate of change in food intake (%): at 48 hours vs day before administration; for Body weight change: at 48 hours
In short: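 DIO mice (mean body weight 52.5 g), 5 per group, dosed at 30 nmol/kg every 24 h for two doses, in 10 mM PBS pH 7.4; controls received solvent. Food intake and body weight at 48 h expressed as change rate versus the day before dosing.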

[4] = Accelerated chemical stability in injection solvent system (HPLC-UV); format: physicochemical; details: 14 days, phosphate buffer pH 7.3 with Tween 80 and phenol, main peak area vs day 0
In short: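 Compound dissolved in 10 mM pH 8.5 sodium hydrogen phosphate buffer, adjusted to pH 7.3, with Tween 80 and phenol added. Solutions stored 14 days at 10 °C and 37 °C; HPLC-UV main-peak area by normalisation compared against day 0.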

[5] = pH 7.5, Solubility, pH 7.5, 10 mM phosphate buffer
[6] = pH 8, Solubility, pH 8.0, 10 mM phosphate buffer
[7] = pH 8, Solubility, pH 8.0, 20 mM phosphate buffer
[8] = pH 7.5, Solubility, pH 7.5, 20 mM phosphate buffer
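For Solubility in this document: compound added at 2 mg per mL of phosphate buffer, with the dissolved amount determined in the supernatant.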
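For Solubility, pH 7.5, 20 mM phosphate buffer in this document: compound added at 2 mg per mL of phosphate buffer, with the dissolved amount determined in the supernatant.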

T1 sequence (P47871 26-477): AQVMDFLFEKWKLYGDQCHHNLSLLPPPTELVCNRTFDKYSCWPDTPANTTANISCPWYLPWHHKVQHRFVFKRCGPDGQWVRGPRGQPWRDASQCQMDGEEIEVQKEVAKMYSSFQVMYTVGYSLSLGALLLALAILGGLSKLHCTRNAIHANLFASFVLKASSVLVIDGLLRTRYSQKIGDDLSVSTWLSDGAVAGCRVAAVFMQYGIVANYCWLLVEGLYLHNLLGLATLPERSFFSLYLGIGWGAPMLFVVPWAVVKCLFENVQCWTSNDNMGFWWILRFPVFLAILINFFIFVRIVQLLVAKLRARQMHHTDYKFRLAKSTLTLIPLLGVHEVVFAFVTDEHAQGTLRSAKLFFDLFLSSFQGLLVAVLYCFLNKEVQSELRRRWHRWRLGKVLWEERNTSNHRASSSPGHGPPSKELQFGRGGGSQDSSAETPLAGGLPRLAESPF
T2 sequence (P43220 24-463): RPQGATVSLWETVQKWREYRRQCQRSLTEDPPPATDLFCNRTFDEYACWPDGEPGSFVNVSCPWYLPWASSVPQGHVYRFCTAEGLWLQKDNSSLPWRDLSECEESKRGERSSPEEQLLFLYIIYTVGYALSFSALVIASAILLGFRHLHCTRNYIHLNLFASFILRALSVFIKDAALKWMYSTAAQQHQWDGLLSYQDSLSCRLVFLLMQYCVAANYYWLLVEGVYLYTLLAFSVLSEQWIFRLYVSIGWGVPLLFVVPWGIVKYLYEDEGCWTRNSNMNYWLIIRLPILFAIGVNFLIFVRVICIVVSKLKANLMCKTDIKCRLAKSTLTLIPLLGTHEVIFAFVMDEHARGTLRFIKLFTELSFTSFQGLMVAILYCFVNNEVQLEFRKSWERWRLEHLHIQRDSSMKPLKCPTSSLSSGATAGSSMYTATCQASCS

SMILES	Solubility, pH 7.5, 20 mM phosphate buffer (physchem; pH 7.5)	solubility (physchem; [5]) [µg/mL]	solubility (physchem; [6]) [µg/mL]	solubility (physchem; [7]) [µg/mL]	body weight change rate, Table 3 ([1]; DIO mice, subcutaneous injection every day for 14 days, (initial−last)/initial) [%]	EC50 (GC receptor) [nM]	EC50 (human GLP-1 receptor) [nM]	AUC of blood glucose, Table 4 ([2]; DIO mice fasted 16 h, glucose 1 g/kg i.p. 1 h after s.c. administration, 0.5, 1, 1.5 h) [mmol·h/L]	AUC reduction rate (%), Table 4 ([2]; blood glucose inhibition rate compared with model control group, DIO mice, glucose 1 g/kg i.p.)	Rate of change in food intake (%) [3] [%]	Body weight change [3] [g]	solubility (physchem; [8]) [µg/mL]	body weight change, Table 5 ([1]; Example 4, DIO mice, 14 days' administration, methods as in Example 3)	AUC of blood glucose, Table 6 ([2]; Example 4, DIO mice under glucose load, methods as in Example 3) [mmol·h/L]	AUC reduction rate (%), Table 6 ([2]; Example 4, compared with model control group, DIO mice under glucose load)	Change in purity % (10° C.) ([4]; 10° C.) [%]	Change in purity % (37° C.) ([4]; 37° C.) [%]
CCCCCCCCCCCCCCCC(=O)N[C@@H](CCC(=O)N[C@@H](CCC(=O)NCCCC[C@H](NC(=O)[C@H](CC(=O)O)NC(=O)[C@H](CO)NC(=O)[C@@H](NC(=O)[C@H](Cc1ccccc1)NC(=O)[C@@H](NC(=O)CNC(=O)[C@H](CCC(N)=O)NC(=O)C(C)(C)NC(=O)[C@@H](N)Cc1c[nH]cn1)[C@@H](C)O)[C@@H](C)O)C(=O)N[C@@H](CO)C(=O)N[C@@H](CCCCN)C(=O)N[C@@H](Cc1ccc(O)cc1)C(=O)N[C@@H](CC(C)C)C(=O)N[C@@H](CCC(=O)O)C(=O)N[C@@H](CCC(=O)O)C(=O)N[C@@H](CCCNC(=N)N)C(=O)N[C@@H](C)C(=O)N[C@@H](C)C(=O)N[C@@H](CCCCN)C(=O)N[C@@H](CCC(=O)O)C(=O)N[C@@H](Cc1ccccc1)C(=O)N[C@H](C(=O)N[C@@H](C)C(=O)N[C@@H](Cc1c[nH]c2ccccc12)C(=O)N[C@@H](CC(C)C)C(=O)N[C@@H](CCCCN)C(=O)N[C@@H](CCC(=O)O)C(=O)NCC(=O)NCC(=O)N1CCC[C@H]1C(=O)N[C@@H](CO)C(=O)N[C@@H](CO)C(=O)NCC(N)=O)C(C)C)C(=O)O)C(=O)O [Compound 3] (HELM PEPTIDE1{H.[Aib].Q.G.T.F.T.S.D.K.S.K.Y.L.E.E.R.A.A.K.E.F.V.A.W.L.K.E.G.G.P.S.S.G.[am]}|PEPTIDE2{[CCCCCCCCCCCCCCCC(=O)[*:2]].[gGlu].[gGlu]}$PEPTIDE1,PEPTIDE2,10:R3-3:R2$$$V2.0; N-terminus assumed)	Insoluble	60 (≈ 14.2 µM)	170 (≈ 40.3 µM)	90 (≈ 21.3 µM)	22.0	0.1	20.7	8.66 ± 2.14	59.1** %								
CC[C@H](C)[C@H](NC(=O)[C@H](Cc1ccccc1)NC(=O)[C@H](CCC(=O)O)NC(=O)[C@H](CCCCN)NC(=O)[C@H](C)NC(=O)[C@H](C)NC(=O)[C@H](CCCNC(=N)N)NC(=O)[C@H](CCC(=O)O)NC(=O)[C@H](CC(=O)O)NC(=O)[C@H](CC(C)C)NC(=O)[C@H](Cc1ccc(O)cc1)NC(=O)[C@H](CCCCN)NC(=O)[C@H](CO)NC(=O)[C@H](CCCCNC(=O)COCCOCCNC(=O)COCCOCCNC(=O)CC[C@H](NC(=O)CCCCCCCCCCCCCCCCCCC(=O)O)C(=O)O)NC(=O)[C@H](CC(=O)O)NC(=O)[C@H](CO)NC(=O)[C@@H](NC(=O)[C@H](Cc1ccccc1)NC(=O)[C@@H](NC(=O)CNC(=O)[C@H](CCC(N)=O)NC(=O)C(C)(C)NC(=O)[C@@H](N)Cc1c[nH]cn1)[C@@H](C)O)[C@@H](C)O)C(=O)N[C@@H](C)C(=O)N[C@@H](Cc1c[nH]c2ccccc12)C(=O)N[C@@H](CC(C)C)C(=O)N[C@@H](CCC(=O)O)C(=O)N[C@@H](C)C(=O)NCC(=O)NCC(=O)N1CCC[C@H]1C(=O)N[C@@H](CO)C(=O)N[C@@H](CO)C(=O)NCC(N)=O [Compound 77] (H-H[Aib]QGTFTSDK([AEEA-AEEA-γGlu-C20 diacid])SKYLDERAAKEFIAWLEAGGPSSG-NH2; N-terminus assumed)						0.076	0.291			−51	-2.9						
CC[C@H](C)[C@H](NC(=O)[C@H](Cc1ccccc1)NC(=O)[C@H](CCC(=O)O)NC(=O)[C@H](CCCCN)NC(=O)[C@H](C)NC(=O)[C@H](C)NC(=O)[C@H](CCCNC(=N)N)NC(=O)[C@H](CCC(=O)O)NC(=O)[C@H](CCC(=O)O)NC(=O)[C@H](CC(C)C)NC(=O)[C@H](Cc1ccc(O)cc1)NC(=O)[C@H](CCCCN)NC(=O)[C@H](CO)NC(=O)[C@H](CCCCNC(=O)COCCOCCNC(=O)COCCOCCNC(=O)CC[C@H](NC(=O)CCCCCCCCCCCCCCCCC(=O)O)C(=O)O)NC(=O)[C@H](CC(=O)O)NC(=O)[C@H](CO)NC(=O)[C@@H](NC(=O)[C@H](Cc1ccccc1)NC(=O)[C@@H](NC(=O)CNC(=O)[C@H](CCC(N)=O)NC(=O)C(C)(C)NC(=O)[C@@H](N)Cc1c[nH]cn1)[C@@H](C)O)[C@@H](C)O)C(=O)N[C@@H](C)C(=O)N[C@@H](Cc1c[nH]c2ccccc12)C(=O)N[C@@H](CC(C)C)C(=O)N[C@@H](CCC(=O)O)C(=O)NCC(=O)NCC(=O)N1CCC[C@H]1C(=O)N[C@@H](CO)C(=O)N[C@@H](CO)C(=O)NCC(N)=O [Compound 6] (H-H[Aib]QGTFTSDK([AEEA-AEEA-γGlu-C18 diacid])SKYLEERAAKEFIAWLEGGPSSG-NH2; N-terminus assumed)		1390 (≈ 321 µM)	> 2000	1620 (≈ 374 µM)		0.052	0.439					980 (≈ 226 µM)	28.32	8.99 ± 1.46	54.7** %		
CC[C@H](C)[C@H](NC(=O)[C@H](Cc1ccccc1)NC(=O)[C@H](CCC(=O)O)NC(=O)[C@H](CCCCN)NC(=O)[C@H](C)NC(=O)[C@H](C)NC(=O)[C@H](CCCNC(=N)N)NC(=O)[C@H](CCC(=O)O)NC(=O)[C@H](CC(=O)O)NC(=O)[C@H](CC(C)C)NC(=O)[C@H](Cc1ccc(O)cc1)NC(=O)[C@H](CCCCN)NC(=O)[C@H](CO)NC(=O)[C@H](CCCCNC(=O)COCCOCCNC(=O)COCCOCCNC(=O)CC[C@H](NC(=O)CCCCCCCCCCCCCCCCC(=O)O)C(=O)O)NC(=O)[C@H](CC(=O)O)NC(=O)[C@H](CO)NC(=O)[C@@H](NC(=O)[C@H](Cc1ccccc1)NC(=O)[C@@H](NC(=O)CNC(=O)[C@H](CCC(N)=O)NC(=O)C(C)(C)NC(=O)[C@@H](N)Cc1c[nH]cn1)[C@@H](C)O)[C@@H](C)O)C(=O)N[C@@H](C)C(=O)N[C@@H](Cc1c[nH]c2ccccc12)C(=O)N[C@@H](CC(C)C)C(=O)N[C@@H](CCC(=O)O)C(=O)NCC(=O)NCC(=O)N1CCC[C@H]1C(=O)N[C@@H](CO)C(=O)N[C@@H](CO)C(=O)NCC(N)=O [Compound 75] (H-H[Aib]QGTFTSDK([AEEA-AEEA-γGlu-C18 diacid])SKYLDERAAKEFIAWLEGGPSSG-NH2; N-terminus assumed)		> 2000				0.087	0.141			−60	-2.4	> 2000				−1.9	−4.5
